In PMC8875392, “Design and Characterization of Myristoylated and Non-Myristoylated Peptides Effective against Candida spp. Clinical Isolates” (International Journal of Molecular Sciences, 2022):
Converted amounts (≈) assume the structure as drawn. Where two headings read alike, the source gives them in different places. Where a SMILES comes first, the peptide text is derived from it. The star is where a group is joined. Myristoyl = CCCCCCCCCCCCCC(=O)*

Key:
[1] = test system: C. albicans clinical isolates; format: cell-based, Candida albicans; settings: 16 h
Protocol: (§1) The antifungal activity of AMPs was determined against 50 clinical isolates, 10 for each of the following Candida species: C. albicans, C. tropicalis, C. glabrata, C. parapsilosis, and C. auris. The latter were derived from patients with positive blood cultures in four hospitals in India, with known resistance profiles to fluconazole, voriconazole, and echinocandins. Yeast cells were grown in Brain Heart Infusion (BHI) medium (Sigma-Aldrich, Gillingham, UK) for 16 h at 37 °C in a 150-rpm orbital shaker. Cells were then sub-inoculated in a fresh BHI medium and grown to an optical density (OD) of 0.3. The turbidity of the inoculum was adjusted to 0.5 McFarland and diluted 1:500 in RPMI 1640 broth, corresponding to around […].
(§2) Minimal inhibitory concentrations (MICs) were determined by Broth microdilution susceptibility tests, according to The Clinical and Laboratory Standards Institute (CLSI) international guidelines. A fungal suspension of 0.5 MacFarland was diluted 1:500 in RPMI 1640 broth and incubated in 96 multi-well plates containing AMPs at different concentrations ranging from 0.125 to 256 μg/mL. In this range of concentration, lipopeptides were completely soluble. […] The MIC90 represents the value at which ≥90% of the strains within a test population were inhibited.

[2] = test system: rabbit erythrocytes
Protocol: The hemolytic assay was performed on rabbit erythrocytes (Rockland) maintained in Alsever’s solution (Innovative Research). Briefly, after the removal of Alsever’s solution, the erythrocytes were resuspended in PBS and counted in a hemocytometer. A suspension of 5,000,000 red blood cells was incubated with four dilutions (from 5 µm to 50 µm) of the six peptides in a 96-well microplate. As a negative control, erythrocytes were incubated without the peptides, while as a positive control, erythrocyte was added with triton 10% v/v. The plate was incubated at 37 °C for 2 h and subsequently centrifuged at 1200 rpm × 3 min to separate the pellet from the supernatant. The absorbance of the supernatant was measured at 492 nm. Each point was made in triplicate. The relative OD compared to the positive control defined the percentage of hemolysis [71]. Statistical analysis was performed using two-way ANOVA analysis followed by Bonferroni’s post-test.

[3] = test system: C. parapsilosis clinical isolates; format: cell-based, Candida parapsilosis
Protocol: as §1, §2

[4] = Critical micellar concentration (CMC) determination with ANS fluorescent probe; format: physicochemical; settings: ANS fluorescence (70 μM ANS, λex 356 nm, emission 465 nm) in water, peptide 0.8–10.0 μM, 298 K, intersection of the two lines
Protocol: Lipopeptides usually self-assemble in organized structures that have attracted interest because of their enhanced bactericidal and fungicidal effects. The self-assembly of myristoylated peptides was evaluated by determining the critical micellar concentration (CMC) that represents the concentration of spontaneous associations of monomers by a spectrofluorometric method. 8-anilinonaphtalene-1-sulfonate (ANS) was used as a fluorescent probe since its fluorescence is very sensitive to the microenvironment, showing a blue shift and intensity increase upon changing from a polar to non-polar medium. Therefore, the fluorescence of ANS was monitored as a function of the lipopeptide concentration. […] Fluorescence intensity slowly increases up to a certain lipopeptide concentration and then breaks abruptly, indicating a sudden change in the aggregation state of lipopeptides. For each peptide, the critical micellar concentration (CMC) was evaluated by the intersection of the two lines. […] All the steady-state fluorescence measurements were carried out using a Perkin Elmer LS55 fluorescence spectrophotometer. All the experiments were conducted at 298 K in a thermostatic cell holder and in 20 mM phosphate buffer at pH 7.4 containing 0.8 mM EDTA and 150 mM NaCl unless otherwise specified. The CMC of the N-terminal myristoylated peptides was determined in water by fluorescence spectroscopy using 8-anilinonaphtalene-1-sulfonate (ANS) as the fluorescent probe. […] The ANS was excited at λex = 356 nm, and the fluorescence spectrum was measured for λem = 400–670 nm with excitation and emission bandwidths of 5 nm.

[5] = test system: C. glabrata clinical isolates; format: cell-based, Candida glabrata; settings: 16 h
Protocol: as §1, §2

[6] = test system: Candida auris; test: In vivo peptide efficacy in Galleria mellonella larvae infected with C. auris; settings: larvae infected with Candida auris 10^7 CFU, groups of ten, peptide 640 µg/mL injected at the same time, 30 °C
Protocol: (§3) Multidrug-resistant C. auris was chosen as a representative species for in vivo studies. […] Groups of ten G. mellonella larvae were infected with C. auris and treated with the Pep-B and Myr-B peptides at a concentration of 640 µg/mL (about 400 µM).
(§4) Ten larvae (250–320 mg each) were selected at random for each step in the procedure. Any larvae with darkening of the cuticle were discarded. The test compounds and yeast were injected into the hemocoel in water buffer through the last left proleg (Insumed 30G Pic, Italy, syringe volume 0.5 mL, needle size 30G). The larvae were incubated in the dark for 3 days, and mortality was recorded daily.
An infective dose of yeast Candida auris was determined by injecting groups of ten larvae with a suspension at 10^5, 10^6, 10^7, and 10^8 colony-forming units (CFU) per injection. The larvae were incubated for 3 days at 30 °C. An infective dose was defined as the one that caused an immune response, recognizable by the darkening of the cuticle and able to kill approximately 50% of larvae after 24 h.
(§5) For the peptide efficacy experiment, ten larvae were injected into the last left proleg with a pre-determined infective dose of yeast and the dose of peptides at the same time in a final volume of 10 μL and incubated at 30 °C. Each step in the procedure included six groups of 10 larvae: C. auris-infected larvae (10^7 CFU), infected and treated larvae with peptide B (640 μg/mL), infected and treated larvae with peptide Myr-B (640 μg/mL), treated larvae with peptide B (640 μg/mL), treated larvae with peptide Myr-B (640 μg/mL), and vehicle-injected control (water). The mortality was recorded daily for 3 days.

[7] = test system: Galleria mellonella larvae; test: In vivo peptide toxicity in Galleria mellonella model; settings: uninfected larvae, groups of ten, peptide 640 µg/mL, single injection, 30 °C
Protocol: as §3, §4, §5

[8] = isolate Candida parapsilosis 8, CLSI broth microdilution, RPMI 1640
[9] = isolate Candida parapsilosis 9, CLSI broth microdilution, RPMI 1640
[10] = isolate Candida parapsilosis 10, CLSI broth microdilution, RPMI 1640

MIC90 [1] [µg/mL] | MIC ([3]; clinical isolates, 16 h) [µg/mL] | MIC90 ([3]; clinical isolates, 16 h) [µg/mL] | MIC [3, 8] [µg/mL] | MIC [3, 9] [µg/mL] | MIC [3, 10] [µg/mL] | critical micellar concentration (CMC) [4] [µM] | MIC [5] [µg/mL] | MIC90 [5] [µg/mL] | SMILES | MIC [1] [µg/mL] | further results
16 (≈ 10.1 µM) | 16 (≈ 10.1 µM) | 16 (≈ 10.1 µM) | 16 (≈ 10.1 µM) | 16 (≈ 10.1 µM) | 16 (≈ 10.1 µM) | 4.7 ± 0.8 | 16 (≈ 10.1 µM) | 16 (≈ 10.1 µM) | CCCCCCCCCCCCCC(=O)N[C@@H](Cc1c[nH]c2ccccc12)C(=O)N[C@@H](Cc1ccccc1)C(=O)NCC(=O)N[C@@H](CCCCN)C(=O)N[C@@H](CC(C)C)C(=O)N[C@@H](Cc1ccc(O)cc1)C(=O)N[C@@H](CCCNC(=N)N)C(=O)NCC(=O)N[C@H](C(=O)N[C@H](C(=O)N[C@@H](CCCCN)C(=O)O)[C@@H](C)O)[C@@H](C)CC [Myr-A] (Myristoyl-WFGKLYRGITK-OH; C-terminus assumed) |  | MIC (Range) [1]: 8 to 16 µg/mL; hemolysis ([2]; 5 µM): 0.1%
32 (≈ 21.2 µM) | 32 (≈ 21.2 µM) | 32 (≈ 21.2 µM) | 32 (≈ 21.2 µM) | 32 (≈ 21.2 µM) | 32 (≈ 21.2 µM) | 5.1 ± 0.4 | 32 (≈ 21.2 µM) | 32 (≈ 21.2 µM) | CCCCCCCCCCCCCC(=O)N[C@@H](Cc1c[nH]c2ccccc12)C(=O)N[C@H](C(=O)N[C@H](C(=O)N[C@@H](CCCCN)C(=O)N[C@@H](CCCCN)C(=O)N[C@H](C(=O)N[C@@H](CCCCN)C(=O)NCC(=O)N[C@@H](CC(C)C)C(=O)N[C@@H](CC(C)C)C(=O)N[C@@H](CCCCN)C(=O)O)C(C)C)C(C)C)C(C)C [Myr-C] (Myristoyl-WVVKKVKGLLK-OH; C-terminus assumed) | 32 (≈ 21.2 µM) | hemolysis ([2]; 50 µM): 28.5%

SMILES | MIC90 [1] [µg/mL] | MIC ([3]; clinical isolates, 16 h) [µg/mL] | MIC90 ([3]; clinical isolates, 16 h) [µg/mL] | MIC [3, 8] [µg/mL] | MIC [3, 9] [µg/mL] | MIC [3, 10] [µg/mL] | critical micellar concentration (CMC) [4] [µM] | MIC [5] [µg/mL] | MIC90 [5] [µg/mL] | MIC [1] [µg/mL] | further results
CCCCCCCCCCCCCC(=O)N[C@@H](Cc1c[nH]c2ccccc12)C(=O)N[C@@H](CCCNC(=N)N)C(=O)NCC(=O)N[C@H](C(=O)N[C@H](C(=O)N[C@@H](CCCCN)C(=O)N[C@H](C(=O)N[C@H](C(=O)N[C@@H](CCCCN)C(=O)N[C@@H](CCCCN)C(=O)N[C@H](C(=O)O)C(C)C)C(C)C)C(C)C)[C@@H](C)O)[C@@H](C)CC [Myr-B] (Myristoyl-WRGITKVVKKV-OH; C-terminus assumed) | 16 (≈ 10.5 µM) | 32 (≈ 21 µM) | 32 (≈ 21 µM) | 32 (≈ 21 µM) | 32 (≈ 21 µM) | 32 (≈ 21 µM) | 5.1 ± 0.8 |  | 32 (≈ 21 µM) | 16 (≈ 10.5 µM) | Peptide efficacy, DAY 1 Alive [6]: 8; Peptide efficacy, DAY 1 Dead [6]: 2; Peptide efficacy, DAY 2 Alive [6]: 3; Peptide efficacy, DAY 2 Dead [6]: 7; Peptide efficacy, DAY 3 Alive [6]: 3; Peptide efficacy, DAY 3 Dead [6]: 7; MIC (Range) [5]: 16 to 32 µg/mL; Peptide toxicity, DAY 1 Dead [7]: 1; Peptide toxicity, DAY 2 Dead [7]: 1; Peptide toxicity, DAY 3 Dead [7]: 1
